In test [1] the target is T1, Genome polyprotein (dengue virus type 2, UniProt P29990). It counts as functional, Thailand/16681/1984.
In test [2] the target is T1, Genome polyprotein. The test is classed as functional, Thailand/16681/1984. This is another data set of the same source.

Values joined by “and” are separate entries in the source; they are usually repeats but may differ in a detail not shown here. Equal entries are not always repeated.

T1 sequence (P29990 1346-1475 limits assumed): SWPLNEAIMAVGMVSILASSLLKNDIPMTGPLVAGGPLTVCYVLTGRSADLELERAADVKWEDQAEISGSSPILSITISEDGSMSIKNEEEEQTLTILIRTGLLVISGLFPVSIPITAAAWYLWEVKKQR
T1 sequence (P29990 1476-2093 limits assumed): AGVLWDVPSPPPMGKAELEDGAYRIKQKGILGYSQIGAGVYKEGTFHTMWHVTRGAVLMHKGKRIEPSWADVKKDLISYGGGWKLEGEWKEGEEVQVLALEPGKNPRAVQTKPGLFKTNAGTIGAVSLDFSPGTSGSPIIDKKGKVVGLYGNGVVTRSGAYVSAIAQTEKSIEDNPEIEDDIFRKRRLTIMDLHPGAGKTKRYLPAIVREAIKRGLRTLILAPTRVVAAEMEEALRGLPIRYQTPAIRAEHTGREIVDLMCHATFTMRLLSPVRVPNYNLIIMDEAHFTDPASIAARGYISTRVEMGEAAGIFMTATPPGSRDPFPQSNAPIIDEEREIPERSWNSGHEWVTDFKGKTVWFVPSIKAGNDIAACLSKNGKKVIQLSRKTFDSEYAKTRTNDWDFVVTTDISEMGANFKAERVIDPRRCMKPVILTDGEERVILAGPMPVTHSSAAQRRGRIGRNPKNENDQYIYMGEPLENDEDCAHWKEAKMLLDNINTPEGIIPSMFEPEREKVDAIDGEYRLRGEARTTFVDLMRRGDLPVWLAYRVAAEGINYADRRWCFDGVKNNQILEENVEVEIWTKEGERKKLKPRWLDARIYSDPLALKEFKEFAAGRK

Consider `CN1CCC([C@H]2CCCN(C(=O)Nc3ccc4c(c3)CNC4)C2)CC1`, for which the IC50 in test [1] is greater than 100 µM; in test [2] it was greater than 99.5 µM.
With `COCCNC(=O)[C@H](Nc1ccc2c(c1)CNC2)c1cc(Cl)cc(C2CC2)c1`, the half-maximal inhibitory concentration (IC50) was greater than 100 µM in test [1] and greater than 99.5 µM in test [2].
With `Cc1cc(NC(=O)c2cc(Cl)cc3[nH]ncc23)ccc1N1CCNCC1`, the results for the IC50 in test [1] and in test [2] were greater than 100 µM and 83.5 µM, respectively.
Take `O=C(NC[C@H]1CCCO1)[C@H](Nc1ccc2c(c1)CNC2)c1cc(Cl)cc2[nH]ncc12`: the IC50 was greater than 100 µM in test [1] and greater than 99.5 µM in test [2].
Regarding `Cc1ccc(C)n1-c1ccc(Cl)cc1C(=O)Nc1ccc2c(c1)CNC2`, the values for the IC50 in test [1] and in test [2] were greater than 100 µM and greater than 99.5 µM, respectively.
In the case of `N#C[C@H](Nc1ccc2c(c1)CNC2)c1cccc2[nH]ncc12`, the IC50 in test [1] was greater than 100 µM; in test [2] it was greater than 99.5 µM.
For `O=C(Nc1ccc2c(c1)CNC2)c1cc(Cl)cc2nccnc12`, the half-inhibitory concentration (IC50) worked out at 77.9 µM in test [1] and 73.5 µM in test [2].
Regarding `O=C(Nc1ccc2c(c1)CNC2)N1CCC2(C1)CC(F)(F)C2`, the IC50 in test [1] was greater than 100 µM; in test [2], greater than 99.5 µM.
Turning to `Cc1cc(C(F)(F)F)cc(C(=O)Nc2ccc3c(c2)CNC3)n1`, the IC50 in test [1] was greater than 100 µM; in test [2], 48.6 µM.
Regarding `CCc1ncc(Cl)cc1C(=O)Nc1ccc2c(c1)CNC2`, the IC50 in test [1] was greater than 100 µM; in test [2], greater than 99.5 µM.
On to `O=C(Nc1ccc2c(c1)CNC2)c1c(Br)cc(Cl)c2[nH]ncc12`, for which the IC50 in test [1] is greater than 100 µM; in test [2], greater than 99.5 µM.
Turning to `O=C(Nc1ccc2c(c1)CNC2)c1c(Br)ccc2[nH]ncc12`, the IC50 was greater than 100 µM in test [1] and greater than 99.5 µM in test [2].
`N#C[C@]1(Nc2ccc3c(c2)CNC3)C(=O)Nc2ccc(Cl)cc21`: the IC50 was greater than 100 µM in test [1] and greater than 99.5 µM in test [2].
Taken in the same sequence, the figures for `O=C(Nc1ccc2c(c1)CNC2)c1nccc2[nH]ncc12` were greater than 100 µM and greater than 99.5 µM.
Taken in the same sequence, the figures for `CC(C)(C)OC(=O)N1Cc2ccc(NC(=O)c3cc(Cl)cc4[nH]ncc34)cc2C1` were greater than 100 µM and greater than 99.5 µM.
On the same counts, the results for `Cn1nc(C(=O)Nc2cc(CCCN)ccn2)cc1C1CC1` are greater than 100 µM and greater than 99.5 µM.
Consider `N#Cc1cc(Cl)cc([C@H](C#N)Nc2ccc3c(c2)CNC3)c1`, for which the IC50 was greater than 100 µM in test [1] and greater than 99.5 µM in test [2].
`Cc1cnc([C@H]2CCCN(C(=O)Nc3ccc4c(c3)CNC4)C2)s1`: the IC50 in test [1] is greater than 100 µM; in test [2], greater than 99.5 µM.
In the case of `CC(C)c1ccc(Cl)cc1C(=O)Nc1ccc2c(c1)CNC2`, the 50% inhibitory concentration (IC50) is greater than 100 µM in test [1] and greater than 99.5 µM in test [2].
Taken in the same sequence, the figures for `Cc1c(C(=O)Nc2cc(CCCN)ccn2)cnn1C1CC1` were greater than 100 µM and greater than 99.5 µM.
With `O=C(Nc1ccc2c(c1)CNC2)c1cc(Cl)ccc1OC1CCCC1`, the figures for the half-maximal inhibitory concentration (IC50) in test [1] and in test [2] were greater than 100 µM and greater than 99.5 µM, respectively.
For `O=C(NC1CCOCC1)[C@H](Nc1ccc2c(c1)CNC2)c1cc(Cl)cc(C2CC2)c1`, the IC50 was greater than 100 µM in test [1]; > 99.5 µM and 37.7 µM and 56.5 µM in test [2].
With `O=C(Nc1ccc2c(c1)OCCNC2)c1cc(Cl)cc2[nH]ncc12`, the IC50 is greater than 100 µM in test [1] and greater than 99.5 µM in test [2].
Consider `CNC(=O)[C@]1(Nc2ccc3c(c2)CNC3)CCc2ccccc21`, for which the IC50 in test [1] was greater than 100 µM; in test [2], greater than 99.5 µM.
In the case of `Cn1cc(CNC(=O)[C@H](Nc2ccc3c(c2)CNC3)c2cc(Cl)cc(C3CC3)c2)cn1`, the IC50 in test [1] is greater than 100 µM; in test [2], greater than 99.5 µM.
Take `CCc1cc(Cl)cc(C(=O)Nc2ccc3c(c2)CNC3)c1`: the IC50 in test [1] is greater than 100 µM; in test [2], greater than 99.5 µM.
In the case of `Cn1cc2cc(C#N)cc(-c3ccc4[nH]c(C(=O)O)cc4c3)c2n1`, the IC50 was greater than 100 µM in test [1] and greater than 99.5 µM in test [2].
For `Cn1cnc2nc(Cl)cc(C(=O)Nc3ccc4c(c3)CNC4)c21`, the figures for the IC50 in test [1] and in test [2] were greater than 100 µM and greater than 99.5 µM, respectively.
Take `O=C(Nc1cnc2c(c1)CNCC2)c1cc(Cl)cc2[nH]ncc12`: the IC50 was greater than 100 µM in test [1] and greater than 99.5 µM in test [2].
For the compound `C[C@H](NC(=O)c1cc(Cl)cc2[nH]ncc12)c1ccc2c(c1)CNC2`, the half-maximal inhibitory concentration (IC50) in test [1] is greater than 100 µM; in test [2] it was greater than 99.5 µM.
Turning to `O=C(Nc1ccc2c(c1)CNC2)c1cc(F)cc2[nH]ncc12`, the IC50 in test [1] is 37.8 µM and 24.3 µM; in test [2], 59.5 µM.
Turning to `NCCCc1ccnc(NC(=O)c2cc(C3CC3)no2)c1`, the IC50 in test [1] was greater than 100 µM; in test [2] it was greater than 99.5 µM.
Taken in the same sequence, the figures for `O=C(Nc1ccc2c(c1)CNC2)c1cc(Cl)ccc1OCC(F)(F)F` were greater than 100 µM and greater than 99.5 µM.
Taken in the same sequence, the figures for `Cn1ncc2c(C(=O)Nc3ccc4c(c3)CNC4)cc(-c3cccnc3)nc21` were greater than 100 µM and 92.7 µM.
With `O=C(Nc1ccc2c(c1)CNCCO2)c1cc(Cl)cc2[nH]ncc12`, the 50% inhibitory concentration (IC50) in test [1] is greater than 100 µM; in test [2], greater than 99.5 µM.
For the compound `O=C(NC[C@H]1CCCO1)[C@H](Nc1ccc2c(c1)CNC2)c1cc(Cl)cc(C2CC2)c1`, the values for the IC50 in test [1] and in test [2] were greater than 100 µM and greater than 99.5 µM, respectively.
On the same counts, the results for `CCn1ncc2c(C(=O)Nc3ccc4c(c3)CNC4)cc(C)nc21` are greater than 100 µM and greater than 99.5 µM.
Consider `Cc1ccc2[nH]ncc2c1C(=O)Nc1ccc2c(c1)CNC2`, for which the values for the IC50 in test [1] and in test [2] were greater than 100 µM and greater than 99.5 µM, respectively.
`O=C(NCC1CCOCC1)[C@H](Nc1ccc2c(c1)CNC2)c1cc(Cl)cc2[nH]ncc12`: the IC50 in test [1] is greater than 100 µM; in test [2], greater than 99.5 µM.
With `CNC(=O)c1ccnc(NC(=O)c2cc(C3CC3)n(C)c2C)c1`, the IC50 in test [1] was greater than 100 µM; in test [2] it was greater than 99.5 µM.
In the case of `NCc1cc(NC(=O)c2cc(Cl)cc(NC(=O)OCc3ccccc3)c2)cc(-c2ccc(OCC(=O)O)nc2)c1`, the IC50 in test [1] was greater than 100 µM; in test [2], greater than 99.5 µM.
Take `Cc1c(C(=O)Nc2cc([C@H]3CCOC3)ccn2)cc(C2CC2)n1C`: the IC50 was greater than 100 µM in test [1] and greater than 99.5 µM in test [2].
Taken in the same sequence, the figures for `O=C(Nc1ccc2c(c1)CNC2)c1ccc(F)c2[nH]ncc12` were greater than 100 µM and 69.7 µM.
On to `O=C(NCc1ccc(F)cc1)[C@H](Nc1ccc2c(c1)CNC2)c1cc(Cl)cc2[nH]ncc12`, for which the IC50 in test [1] was greater than 100 µM; in test [2] it was greater than 99.5 µM.
On the same counts, the results for `O=C(Nc1cccc2c1CNC2)c1cc(Cl)cc2[nH]ncc12` are greater than 100 µM and greater than 99.5 µM.
Consider `COCCN(C)Cc1ccnc(NC(=O)c2cc(C3CC3)n(C)c2C)c1`, for which the IC50 in test [1] is greater than 100 µM; in test [2], greater than 99.5 µM.
On the same counts, the results for `Cc1c(C(=O)Nc2ccc3c(c2)CNC3)cc(C2CC2)n1C` are greater than 100 µM and greater than 99.5 µM.
On to `CCn1c(C)cc(C(=O)Nc2cc(CCCN)ccn2)c1C`, for which the IC50 was greater than 100 µM in test [1] and greater than 99.5 µM in test [2].
`Cc1ccc(C(=O)Nc2ccc3c(c2)CNC3)c2[nH]ncc12`: the concentration for half-maximal inhibition (IC50) was greater than 100 µM in test [1] and greater than 99.5 µM in test [2].
Regarding `N#C[C@H](Nc1ccc2c(c1)CNC2)c1cccc2c1CCNC2=O`, the IC50 in test [1] was greater than 100 µM; in test [2], greater than 99.5 µM.
For `Cc1c(C(=O)Nc2ncc3c(c2C#N)CCOC3)cc(C2CC2)n1C`, the values for the IC50 in test [1] and in test [2] were greater than 100 µM and greater than 99.5 µM, respectively.
On the same counts, the results for `O=C(Nc1ccc2c(c1)CNC2)c1cc(Cl)ccc1-n1ccnc1` are greater than 100 µM and greater than 99.5 µM.

The values above are taken from ChEMBL document CHEMBL5604063, “ASAP - DENV-2 NS2B-NS3 protease fluorescence dose response” (2024).
